Measured values taken from ChEMBL document CHEMBL1133153, “Antitumour benzothiazoles. Part 10: the synthesis and antitumour activity of benzothiazole substituted quinol derivatives” (Bioorg Med Chem Lett, 2000).
pIC50: −log10 of the molar value.

What was measured:
Type in all cases: functional, cell-based
HCT-116 = test: The compound was tested in vitro for its antitumor activity against human colon cancer cell line HCT116
MCF7 = test: The compound was tested in vitro for its antitumor activity against human breast cell line MCF-7
MDA-MB-468 = test: The compound was tested in vitro for its antitumor activity against human breast cell line MDA-468
HT-29 = test: The compound was tested in vitro for its antitumor activity against human colon cancer cell line HT-29

Structure (SMILES) | pIC50 (HCT-116) | pIC50 (MCF7) | pIC50 (MDA-MB-468) | pIC50 (HT-29)
Oc1cccc(-c2nc3ccccc3s2)c1 | < 4.00 | 4.29 | 7.30 | 4.10
Oc1ccc(-c2nc3ccccc3s2)cc1 | < 4.00 | 4.27 | 6.85 | 4.08
